The test addresses T1, human histamine-3 receptor (Homo sapiens, UniProt Q9Y5N1).
T1 construct: expressed in transfected cells; host or cells: HEK293 and CHO-K1 (membrane preparation)
Description: Histamine analogue-binding inhibition test ([35S]GTPγS binding, SPA). Format: biochemical. Conditions: for IC50: 50% inhibitory concentration to the specific [35S]GTPγS binding, membrane specimen of histamine-3 receptor expressing cells (HEK293, CHO-K1), 20 nM R-methylhistamine, 25° C., 3 hours; for inhibition of the binding of N-alpha-methylhistamine (histamine analogue) to histamine-H3 receptor: summary in words of the table's results. From the text:
A cDNA sequence coding for a human histamine-3 receptor [see International Laid-Open WO00/39164) was cloned with expression vectors pCR2.1, pEF1x (by Invitrogen) and pCI-neo (by Promega). The resulting expression vector was transfected into host cells, HEK293 and CHO-K1 (American Type Culture Collection), according to a cationic lipid process [see Proceedings of the National Academy of Sciences of the United States of America, Vol., 84, p. 7413 (1987)] to obtain histamine-3 receptor expression cells.
A membrane specimen prepared from the cells having expressed a histamine-3 receptor was incubated in an assay buffer (50 mM Tris buffer, 100 mM NaCl, 5 mM MgCl2, pH 7.4) along with a test compound, 20 nM R-methylhistamine (histamine analogue, by Sigma), 10?M GDP (guanine nucleotide diphosphate, by Sigma), 200 pM [^35S]GTPγS (guanine nucleotide triphosphate analogue, by Amersham) and SPA resin (W heat germ agglutinin SPA beads, by Amersham) therein, on a 96-well optiplate (by Packard) at 25° C. for 3 hours, then centrifuged at 3,000 rpm, and the activity was determined with Topcount (by Packard). The non-specific binding was determined in the presence of 10 μM GTPγS (by Sigma), and the 50% inhibitory concentration (IC50) of the test compound to the specific [^35S]GTPγS binding was calculated [see British Journal of Pharmacology, Vol. 135, p. 383 (2002)].
For orientation: GTPγS is a poorly hydrolysed GTP analogue; its binding reports G protein activation.

As a reminder, the IC50 is the concentration that gives 50% inhibition.

T1 sequence (Q9Y5N1 whole entry): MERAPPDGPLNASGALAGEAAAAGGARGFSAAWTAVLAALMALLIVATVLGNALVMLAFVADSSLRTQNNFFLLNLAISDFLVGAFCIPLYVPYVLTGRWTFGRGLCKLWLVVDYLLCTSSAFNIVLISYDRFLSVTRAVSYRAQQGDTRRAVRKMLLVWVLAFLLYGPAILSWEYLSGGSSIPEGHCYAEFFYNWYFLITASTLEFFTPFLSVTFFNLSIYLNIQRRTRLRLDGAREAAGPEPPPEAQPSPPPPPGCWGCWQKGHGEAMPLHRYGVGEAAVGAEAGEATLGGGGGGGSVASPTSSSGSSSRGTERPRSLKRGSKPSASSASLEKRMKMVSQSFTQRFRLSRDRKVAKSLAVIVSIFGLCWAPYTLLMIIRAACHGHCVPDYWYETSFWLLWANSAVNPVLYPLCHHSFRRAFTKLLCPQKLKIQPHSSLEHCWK

Take `c1cc2c(-c3ccc(OCCCN4CCCCC4)cc3)nn3cnnc3c2cn1` [Example 69]: the IC50 is 0.23 nM and the “inhibition of the binding of N-alpha-methylhistamine (histamine analogue) to histamine-H3 receptor” value is reported as “strongly inhibited”.

Turning to “2-[4-(3-piperidin-1-ylpropoxy)-phenyl]-3aH-pyrazolo[1,5-d][1,2,4]triazine [Example 1]”, the IC50 was found to be 6.8 nM and the “inhibition of the binding of N-alpha-methylhistamine (histamine analogue) to histamine-H3 receptor” value was “strongly inhibited”.

On to `Cc1nn2cnnc2cc1-c1ccc(OCCCN2CCCCC2)cc1` [Example 19, 6-Methyl-7-[4-(3-Piperidin-1-ylpropoxy)-phenyl]-[1,2,4]triazolo[4,3-b]pyridazine], for which the IC50 was 1.4 nM and the “inhibition of the binding of N-alpha-methylhistamine (histamine analogue) to histamine-H3 receptor” value is recorded as “strongly inhibited”.

Take `Cc1nnc2c3cccnc3c(-c3ccc(OCCCN4CCCCC4)cc3)nn12` [Example 30, 3-Methyl-6-[4-(3-piperidin-1-ylpropoxy)-phenyl]-pyrido[3,2-d][1,2,4]triazolo[4,3-b]pyridazine]: the IC50 came to 0.1 nM and the “inhibition of the binding of N-alpha-methylhistamine (histamine analogue) to histamine-H3 receptor” value is “strongly inhibited”.

As to “3-Phenyl-6-[6-(3-piperidin-1-ylpropyl)-pyridin-3-ylmethoxy]-[1,2,4]triazolo[3,4-a]phthalazine [Example 24]”, the IC50 was determined as 10 nM and the “inhibition of the binding of N-alpha-methylhistamine (histamine analogue) to histamine-H3 receptor” value is “strongly inhibited”.

As to `c1cc(-c2ccc3nncn3n2)ccc1OCCCN1CCCCC1` [Example 10, 6-[4-(3-piperidin-1-ylpropoxy)phenyl]-[1,2,4]triazolo[4,3-b]pyridazine], the IC50 is 1.8 nM and the “inhibition of the binding of N-alpha-methylhistamine (histamine analogue) to histamine-H3 receptor” value is “strongly inhibited”.

The record behind these values is patent US7645756B2, “Nitrogenous fused heteroaromatic ring derivative” (Banyu Pharmaceutical Co. Ltd., priority 2004, dated 2010).
